According to publication PMC9749938, “Alkyltriphenylphosphonium turns naphthoquinoneimidazoles into potent membrane depolarizers against mycobacteria” (RSC Medicinal Chemistry, 2022):
pEC50: −log10 of the molar value.

tested on: inverted membrane vesicles of M. smegmatis mc^24517 overexpressing NDH2 (TB-ndh); assay: NADH oxidation in inverted membrane vesicles, TB-ndh; assay type: biochemical; conditions: read-out: EC50 of activation of NADH oxidation, TB-ndh IMV

**Q.** How did the pEC50 turn out when `Cc1nc2c(n1CCCCCCCCCCC[P+](c1ccccc1)(c1ccccc1)c1ccccc1)C(=O)c1ccccc1C2=O.[I-]` [Compound 7] was run?
**A.** 5.85

**Q.** With `CCCCn1c2c([n+](C3CCC4(CCCCC4)CC3)c1C)C(=O)c1ccccc1C2=O.[Br-]` [Compound 44, reference compound] as the compound, how does the pEC50 read?
**A.** 5.43

**Q.** With `CCCCCCCCn1c2c([n+](CCCC)c1C)C(=O)c1ccccc1C2=O.[Br-]` [Compound 45, reference compound] as the compound, how does the pEC50 read?
**A.** 6.70
